Patent US20110065796A1 (SHIRE LLC, priority 2009, published 2011)
Where a name gives a salt, the structure may show the parent alone. Read-outs that look alike come from different tables or passages of the source.

Key:
[1] = Prodrug stability in freshly withdrawn porcine intestinal fluid; assay type: in vitro ADME; details: for Prodrug remaining at 3 h: porcine intestinal fluid pH 6.8, 37° C., in % (unit assumed)
Source text: Many of the peptidases in the intestinal lumen may not be present in the USP simulated intestinal fluid preparations previously described. […] The prodrugs evaluated were selected on the basis of adequate pharmacokinetics (see Example 8).

[2] = Comparative bioavailability study of guanfacine in monkeys given guanfacine or prodrug conjugates; assay type: in vivo, cynomolgus monkey; details: oral, monkey
Description: The characteristics of the test animals are set out in Table 13.
The following pharmacokinetic parameters derived from the plasma analytical data were determined using Win Nonlin;

[3] = Comparative bioavailability study in monkeys in the fasted or fed state; assay type: in vivo, cynomolgus monkey; details: for Cmax: male, cynomolgus monkey, plasma, po, 0.5 mg/kg, read-out: mean Cmax prodrug
Description: Five male cynomolgus monkeys were used. Food was withdrawn from animals in fasted groups from the evening of the day prior to dosing until approximately 4 hours after dosing.
The formulations were prepared on the day of dosing and administered orally as soon as practicable up to a maximum of 2 hours after formulation.
Blood samples (0.5 mL) were collected from all animals pre-dose and at 0.5, 1, 2, 3, 4, 6, 8 10, 12, 16 and 24 hours after dosing.
Following processing, the resultant plasma was frozen and analysed by a qualified method. Pharmacokinetic evaluation was performed using a validated pharmacokinetic software package.

[4] = Pharmacokinetics in rat hepatic portal and tail veins after oral administration; assay type: in vivo
Description: Rats were surgically prepared under isofluorane anaesthesia by attaching a silicon catheter to the portal vein then exteriorising it at the nape of the neck with a blood collection port attached.
At each sampling time serial point blood samples (approximately 0.2 mL) were taken simultaneously from the lateral tail vein cannula and the hepatic portal cannula. After collection of the final blood sample each animal was killed by cervical dislocation. Blood samples were collected at 15, 30 minutes and 1, 2, 4, 8 and 24 hours post dose.
Pharmacokinetic parameters in portal and systemic plasma were derived by non-compartmental analysis (linear/logarithmic trapezoidal) using WinNonlin (Version 4.1) software.

human α-2A adrenoceptor = target: T1, human α-2A adrenoceptor (Homo sapiens, UniProt P08913); assay: α-2A adrenoceptor binding assay ([3H] RX821002 competition, recombinant CHO cells); details: [3H] RX821002 (1 nM)
T1 construct: expressed in transfected cells; host or cells: CHO cells
T1 sequence (P08913 1-465): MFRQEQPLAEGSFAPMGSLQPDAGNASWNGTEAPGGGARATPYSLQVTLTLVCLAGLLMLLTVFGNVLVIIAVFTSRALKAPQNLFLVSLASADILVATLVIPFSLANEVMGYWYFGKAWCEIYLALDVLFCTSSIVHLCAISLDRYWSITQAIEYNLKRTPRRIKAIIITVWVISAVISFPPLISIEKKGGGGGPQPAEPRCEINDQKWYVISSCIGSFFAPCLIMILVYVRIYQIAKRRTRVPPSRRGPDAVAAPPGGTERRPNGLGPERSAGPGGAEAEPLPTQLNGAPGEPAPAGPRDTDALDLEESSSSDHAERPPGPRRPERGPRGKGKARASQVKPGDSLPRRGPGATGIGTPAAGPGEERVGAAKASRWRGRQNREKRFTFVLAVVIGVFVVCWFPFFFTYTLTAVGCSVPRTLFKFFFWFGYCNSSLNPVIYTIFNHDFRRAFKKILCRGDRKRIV
Description: The activation of this receptor is responsible for its intended therapeutic effect.
The binding assay methodology employed in this study followed that described by Langin et al. (Eur. J. Pharmacol. 167:95-104, 1989) and used human recombinant CHO cells expressing α-2 adrenoceptors. The competitive binding ligand was [3H] RX821002 (1 nM) which has a high affinity for the alpha-2A subtype.

[5] = system: gastrointestinal transit of a charcoal meal in the rat; assay: Charcoal propulsion test (gut motility) in rat; assay type: in vivo; details: oral
Description: The effect of a drug on gut motility can be studied by means of the charcoal propulsion test.
The method used was based on that described by Takemori et al. (J. Pharmacol. Exp. Ther. 169:39, 1969). Test treatments were administered orally 60 minutes prior to an oral dose of a 10% suspension of charcoal in 2.5% gum Arabic (2 ml/kg). Twenty minutes after dosing with charcoal, the rats were sacrificed and the entire gastrointestinal tract was removed quickly and carefully. The distance that the charcoal meal had traveled toward the caecum was measured and expressed as a percentage of the total gut length.

[6] = Prodrug stability in simulated gastric fluid; details: 37° C., pH 1.1, HPLC
Description: (§1) The remaining concentrations of the prodrugs were then assayed by H PLC.

[7] = Prodrug stability in simulated intestinal fluid; details: 37° C., pH 6.8, HPLC
Description: as §1

[8] = Comparative pharmacokinetic screening study in the monkey (relative Cmax of guanfacine); details: for prodrug levels in plasma (in words): oral gavage, monkey screening study
Description: Blood samples were taken on 4 sampling occasions at various times up to 6 hours after administration and submitted to analysis for the parent drug and prodrug using a qualified LC-MS-MS assay.

[9] = cited from earlier work
[10] = Fasted, 0.5 mg/kg guanfacine equivalent dose, oral
[11] = Study 1, dose 0.1 mg/kg guanfacine free base equivalents
[12] = Study 1, dose 0.3 mg/kg guanfacine free base equivalents
[13] = Study 1, dose 1 mg/kg guanfacine free base equivalents
[14] = Study 1, dose 3 mg/kg guanfacine free base equivalents
[15] = Study 1, dose 5 mg/kg guanfacine free base equivalents
[16] = hepatic portal vein plasma, po, 1 mg/kg, read-out: Hepatic portal vein Prodrug AUC
[17] = hepatic portal vein plasma, po, 1 mg/kg, read-out: Hepatic portal vein Prodrug Cmax
[18] = tail vein (systemic) plasma, po, 1 mg/kg, read-out: Tail vein Prodrug AUC
[19] = tail vein (systemic) plasma, po, 1 mg/kg, read-out: Tail vein Prodrug Cmax
[20] = Study 2, dose 0.1 mg/kg guanfacine free base equivalents
[21] = Study 2, dose 0.3 mg/kg guanfacine free base equivalents

Row | SMILES | stability in porcine intestinal fluid (in words) [1] | Prodrug remaining at 3 h [1] | plasma guanfacine profile (in words) [2] | Ki (human α-2A adrenoceptor) | % change in GI transit vs vehicle [5, 11] | % change in GI transit vs vehicle [5, 12] | % change in GI transit vs vehicle [5, 13] | % change in GI transit vs vehicle [5, 14] | % change in GI transit vs vehicle [5, 15] | % prodrug remaining following incubation for 1 h in simulated gastric fluid pH 1.1 [6] | % prodrug remaining following incubation for 2 h in simulated intestinal fluid pH 6.8 [7] | AUC [4, 16] | Cmax [4, 17] | AUC [4, 18] | Cmax [4, 19] | prodrug levels in plasma (in words) [8] | % change in GI transit vs vehicle [5, 20] | % change in GI transit vs vehicle [5, 21] | also measured
1 | CC(C)[C@H](NC(=O)CCCC(=O)NC(=N)NC(=O)Cc1c(Cl)cccc1Cl)C(=O)O [Compound 1, Guanfacine (Glutaryl-(S)-Valine) Amide] | high stability | 100.6 | sustained guanfacine concentrations | 7200 nM | −9% | −6% | −45% | −50% | −53% | 80% | 92% | – | – | – | – | – | – | – | Cmax [3, 10]: 9.23 ng/mL; Cmax ([3]; Fed, 0.5 mg/kg guanfacine equivalent dose, oral): 7.19 ng/mL; AUC ([4]; hepatic portal vein plasma, oral, 0.5 mg/kg (footnote *), read-out: Hepatic portal vein Prodrug AUC): 159 ng·h/mL; Cmax ([4]; hepatic portal vein plasma, oral, 0.5 mg/kg (footnote *), read-out: Hepatic portal vein Prodrug Cmax): 56.3 ng/mL; AUC ([4]; tail vein (systemic) plasma, oral, 0.5 mg/kg (footnote *), read-out: Tail vein Prodrug AUC): 29.6 ng·h/mL; Cmax ([4]; tail vein (systemic) plasma, oral, 0.5 mg/kg (footnote *), read-out: Tail vein Prodrug Cmax): 8.26 ng/mL
2 | CC(C)[C@H](N)C(=O)NCCC(=O)NC(=N)NC(=O)Cc1c(Cl)cccc1Cl [Compound 2, Guanfacine (β-Alanine-(S)-Valine) Amide] | intermediate stability | 77.8 | – | 1200 nM | +3% | −30% | −42% | −42% | −42% | 75% | 89% | 19.2 ng·h/mL | 46.4 ng/mL | 2.67 ng·h/mL | 4.2 ng/mL | detectable prodrug levels in plasma | – | – | mean Cmax prodrug [3, 10]: BLQ; Cmax [3]: 2.15 ng/mL
3 | CC(C)[C@@H](N)C(=O)N[C@@H](CCC(=O)NC(=N)NC(=O)Cc1c(Cl)cccc1Cl)C(=O)O [Compound 5, Guanfacine ((S)-γ-Glutamate-(R)-Valine) Amide] | – | 91.2 | sustained guanfacine concentrations | 1600 nM | −6% | −22% | −48% | −44% | −42% | 86% | 89% | 61 ng·h/mL | 41.5 ng/mL | 4.6 ng·h/mL | 3.5 ng/mL | – | – | – | % change in GI transit vs vehicle ([5]; Study 1, dose 1.7 mg/kg guanfacine free base equivalents): −50%
4 | C[C@@H](N)C(=O)N[C@@H](CCC(=O)NC(=N)NC(=O)Cc1c(Cl)cccc1Cl)C(=O)O [Compound 41, Guanfacine ((S)-γ-Glutamate-(R)-Alanine) Amide] | high stability | 89.70 ± 3.60 | – | 1700 nM | – | – | – | – | – | 70% | 83% | 43.5 ng·h/mL | 31.9 ng/mL | 8 ng·h/mL | 6.14 ng/mL | detectable prodrug levels in plasma | – | – | –
5 | CNCC(=O)N[C@@H](COC(=O)NC(=N)NC(=O)Cc1c(Cl)cccc1Cl)C(=O)O [Compound 61, Guanfacine ((S)-Serine-Sarcosine) Carbamate] | intermediate stability | 66.86 ± 2.10 | – | 10000 nM | – | – | – | – | – | 92% | 96% | 51.8 ng·h/mL | 43.4 ng/mL | 5.09 ng·h/mL | 7.07 ng/mL | detectable prodrug levels in plasma | −8% | −25% | comparative systemic exposure to guanfacine vs guanfacine at an equimolar dose (in words) ([4]; oral): similar; % change in GI transit vs vehicle ([5]; Study 2, dose 0.5 mg/kg guanfacine free base equivalents): −31%
6 | N=C(N)NC(=O)Cc1c(Cl)cccc1Cl [Guanfacine, N-Amidino-2-(2,6-dichlorophenyl)acetamide monohydrochloride, reference compound] | – | – | – | – | −52% | −55% | −47% | – | – | – | – | – | – | – | – | – | −41% | −56% | % change in GI transit vs vehicle ([5]; Study 2, dose 0.03 mg/kg guanfacine free base equivalents): −13%; reduction in the distance traveled by the charcoal plug within 20 minutes, compared to control group ([5]; 0.1 mg base/kg): 41-52%; bioavailability of guanfacine in man [9]: > 80%; bioavailability ([8]; cynomolgus monkey, in vivo, po): 35%
